In one assay the target is IMP-1 (Serratia marcescens, UniProt P52699). In words: biochemical. It counts as biochemical. To be noted: fluorescence assay with CCF2-FA substrate; read-out: IMP-1 IC50.
Another assay deals with VIM-1 (Pseudomonas aeruginosa (strain ATCC 15692 / DSM 22644 / CIP 104116 / JCM 14847 / LMG 12228 / 1C / PRS 101 / PAO1), UniProt A0A0F7KYQ8). The assay is described as follows: Enzyme activity: determination of IC50, fluorescence assay with CCF2-FA substrate (VIM-1). It counts as biochemical.
A further assay concerns the target NDM-1 (Klebsiella pneumoniae, UniProt C7C422). The assay is described as follows: biochemical. It counts as biochemical. To be noted: fluorescence assay with CCF2-FA substrate; read-out: NDM-1 IC50.
Assay [1] concerns Escherichia coli expressing NDM-1 (CLB30016). The assay is described as follows: Antibiotic potentiation activity: synergistic concentration (MITC95) with imipenem, OD600 growth. It counts as cell-based. To be noted: CLB30016 (NDM-1), 95% inhibition of bacterial growth. In outline: (§1)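 Clinical MBL-producing strains (E. coli NDM-1, S. marcescens IMP-1, K. pneumoniae VIM-1) from overnight plates were diluted 1:100 into 1.1×CAMHB. Compound was tested with imipenem at 4 μg/ml (optionally 1 μg/ml) or without it. After 22–24 h at 35 °C, growth was read as OD600.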

The test system of assay [2] is Serratia marcescens expressing IMP-1 (CL5741). Described as above. It counts as cell-based. To be noted: CL5741 (IMP-1), 95% inhibition of bacterial growth. Summed up:
as §1

Assay [3] has as its system Klebsiella pneumoniae expressing VIM-1 (IHMA599644). Described as above. The format is cell-based. To be noted: IHMA599644 (VIM-1), 95% inhibition of bacterial growth. In outline: as §1
Setting [4] is: fluorescence assay with CCF2-FA substrate, read-out: VIM-1 IC50.
[5] abbreviates: VIM-1 IC50, fluorescence assay with CCF2-FA substrate.

Like-named read-outs stand apart in the source and are kept apart here.

The values that follow come from patent publication US9708336B2, “Metallo-beta-lactamase inhibitors” (priority 2014, dated 2017).

As usually defined, the IC50 is the midpoint of a concentration-inhibition curve.

Chain of NDM-1 (C7C422 whole entry, looked up, species assumed): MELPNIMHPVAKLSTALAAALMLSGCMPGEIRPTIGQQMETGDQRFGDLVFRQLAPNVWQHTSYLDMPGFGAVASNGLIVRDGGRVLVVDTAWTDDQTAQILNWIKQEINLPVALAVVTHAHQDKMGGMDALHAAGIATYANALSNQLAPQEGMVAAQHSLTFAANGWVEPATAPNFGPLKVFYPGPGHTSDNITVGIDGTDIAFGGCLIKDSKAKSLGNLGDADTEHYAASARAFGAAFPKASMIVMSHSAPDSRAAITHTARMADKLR
Chain of IMP-1 (P52699 whole entry, looked up): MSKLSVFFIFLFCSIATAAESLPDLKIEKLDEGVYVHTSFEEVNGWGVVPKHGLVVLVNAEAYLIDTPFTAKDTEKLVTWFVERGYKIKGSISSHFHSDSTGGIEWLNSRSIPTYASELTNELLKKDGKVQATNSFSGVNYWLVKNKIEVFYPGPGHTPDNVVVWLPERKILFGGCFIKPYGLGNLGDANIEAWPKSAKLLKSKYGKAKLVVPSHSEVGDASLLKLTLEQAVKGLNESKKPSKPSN

Turning to `NC1CC(N2CC(c3ccc(-c4ccc(C(F)(F)F)c(S(N)(=O)=O)c4-c4nnn[nH]4)cc3)C2)C1` (stereo not drawn) [Example 807, 4′-[1-(3-aminocyclobutyl)azetidin-3-yl]-2-(1H-tetrazol-5-yl)-4-(trifluuromethyl)biphenyl-3-sulfonamide], the values for the concentration for half-maximal inhibition (IC50) at IMP-1, on VIM-1 (setting [4]) and at NDM-1 were 5.16 nM, 19.9 nM and 3.97 nM, respectively. For the same compound, the “Escherichia coli MITC95” value in assay [1] was 1.563 µM. The “Serratia marcescens MITC95” value in assay [2] stood at 6.25 µM. The “Klebsiella pneumoniae MITC95” value in assay [3] worked out at 25 µM.

For `NC1CCC(N2CC(c3ccc(-c4ccc(C(F)(F)F)c(S(N)(=O)=O)c4-c4nnn[nH]4)cc3)C2)C1` (stereo not drawn) [Example 808, 4′-[1-(3-aminocyclopentyl)azetidin-3-yl]-2-(1H-tetrazol-5-yl)-4-(trifluoromethyl)biphenyl-3-sulfonamide], the values for the IC50 at IMP-1, on VIM-1 (setting [4]) and on NDM-1 were 8.44 nM, 25.3 nM and 3.57 nM, respectively. Also, in assay [1], the “Escherichia coli MITC95” value turned out to be 1.563 µM. Also, the “Serratia marcescens MITC95” value in assay [2] was found to be 3.125 µM. For the same compound, the “Klebsiella pneumoniae MITC95” value in assay [3] worked out at 25 µM.

In the case of `NC1CCCC(N2CC(c3ccc(-c4ccc(C(F)(F)F)c(S(N)(=O)=O)c4-c4nnn[nH]4)cc3)C2)C1` (stereo not drawn) [Example 810, 4′-[1-(3-aminocyclohexyl)azetidin-3-yl]-2-(1H-tetrazol-5-yl)-4-(trifluoromethyl)biphenyl-3-sulfonamide], the 50% inhibitory concentration (IC50) came to 8.92 nM at IMP-1, 26.8 nM on VIM-1 (setting [4]) and 7.06 nM at NDM-1. Further, in assay [1], the “Escherichia coli MITC95” value amounted to 3.125 µM. Further, the “Serratia marcescens MITC95” value in assay [2] was found to be 6.25 µM. The “Klebsiella pneumoniae MITC95” value in assay [3] was found to be 100 µM.

With `NC1CCCC1N1CC(c2ccc(-c3ccc(C(F)(F)F)c(S(N)(=O)=O)c3-c3nnn[nH]3)cc2)C1` (stereo not drawn) [Example 811, 4′-[1-(2-aminocyclopentyl)azetidin-3-yl]-2-(1H-tetrazol-5-yl)-4-(trifluoromethyl)biphenyl-3-sulfonamide], the IC50 at IMP-1 was 9.42 nM; against VIM-1 (setting [5]), 27.9 nM; on NDM-1 it was 4.78 nM. Besides, the “Escherichia coli MITC95” value in assay [1] is 1.563 µM. Moreover, the “Serratia marcescens MITC95” value in assay [2] stood at 6.25 µM. The “Klebsiella pneumoniae MITC95” value in assay [3] amounted to 100 µM.

Turning to `NCCN1CC(c2ccc(-c3ccc(C(F)(F)F)c(S(N)(=O)=O)c3-c3nnn[nH]3)cc2)C1` [Example 812, 4′-[1-(2-aminoethyl)azetidin-3-yl]-2-(1H-tetrazol-5-yl)-4-(trifluoromethyl)biphenyl-3-sulfonamide], the IC50 on IMP-1 came out at 5.77 nM; at VIM-1 (setting [4]), 3.88 nM; on NDM-1, 2.7 nM. Besides, the “Escherichia coli MITC95” value in assay [1] was 1.563 µM. In addition, the “Serratia marcescens MITC95” value in assay [2] worked out at 6.25 µM. The “Klebsiella pneumoniae MITC95” value in assay [3] worked out at 12.5 µM.

Take `NCC1CCC(N2CC(c3ccc(-c4ccc(C(F)(F)F)c(S(N)(=O)=O)c4-c4nnn[nH]4)cc3)C2)CC1` (stereo not drawn) [Example 813, 4′-{1-[4-(aminomethyl)cyclohexyl]azetidin-3-yl}-2-(1H-tetrazol-5-yl)-4-(trifluoromethyl)biphenyl-3-sulfonamide]: the figures for the half-inhibitory concentration (IC50) at IMP-1, at VIM-1 (setting [5]) and on NDM-1 were 9.86 nM, 20.6 nM and 6.27 nM, respectively. The “Escherichia coli MITC95” value in assay [1] amounted to 6.25 µM. Also, the “Serratia marcescens MITC95” value in assay [2] came out at 6.25 µM. For the same compound, the “Klebsiella pneumoniae MITC95” value in assay [3] worked out at 100 µM.

For `NCCC1CCC(N2CC(c3ccc(-c4ccc(C(F)(F)F)c(S(N)(=O)=O)c4-c4nnn[nH]4)cc3)C2)CC1` (stereo not drawn) [Example 814, 4′-{1-[4-(2-aminoethyl)cyclohexyl]azetidin-3-yl}-2-(1H-tetrazol-5-yl)-4-(trifluoromethyl)biphenyl-3-sulfonamide], the IC50 at IMP-1 was 12.5 nM; on VIM-1 (setting [4]) it was 22.5 nM; at NDM-1, 8.08 nM. For the same compound, the “Escherichia coli MITC95” value in assay [1] was 6.25 µM. Moreover, the “Serratia marcescens MITC95” value in assay [2] is 6.25 µM. Besides, in assay [3], the “Klebsiella pneumoniae MITC95” value is 100 µM.

On to `CNC1CC(N2CC(c3ccc(-c4ccc(C(F)(F)F)c(S(N)(=O)=O)c4-c4nnn[nH]4)cc3)C2)C1` (stereo not drawn) [Example 815, 4′-{1-[3-(methylamino)cyclobutyl]azetidin-3-yl}-2-(1H-tetrazol-5-yl)-4-(trifluoromethyl)biphenyl-3-sulfonamide], for which the values for the half-inhibitory concentration (IC50) on IMP-1, on VIM-1 (setting [4]) and at NDM-1 were 6.01 nM, 18 nM and 4.84 nM, respectively. The “Escherichia coli MITC95” value in assay [1] is 1.563 µM. The “Serratia marcescens MITC95” value in assay [2] is 3.125 µM. Also, the “Klebsiella pneumoniae MITC95” value in assay [3] turned out to be 100 µM.

As for `NCCCN1CC(c2ccc(-c3ccc(C(F)(F)F)c(S(N)(=O)=O)c3-c3nnn[nH]3)cc2)C1` [Example 816, 4′-[1-(3-aminopropyl)azetidin-3-yl]-2-(1H-tetrazol-5-yl)-4-(trifluoromethyl)biphenyl-3-sulfonamide], the results for the IC50 at IMP-1, on VIM-1 (setting [4]) and at NDM-1 were 16.3 nM, 13.5 nM and 6.62 nM, respectively. In addition, the “Escherichia coli MITC95” value in assay [1] is 1.563 µM. Further, the “Serratia marcescens MITC95” value in assay [2] worked out at 6.25 µM. In addition, in assay [3], the “Klebsiella pneumoniae MITC95” value amounted to 12.5 µM.

Regarding `NCCCCN1CC(c2ccc(-c3ccc(C(F)(F)F)c(S(N)(=O)=O)c3-c3nnn[nH]3)cc2)C1` [Example 817, 4′-[1-(4-aminobutyl)azetidin-3-yl]-2-(1H-tetrazol-5-yl)-4-(trifluoromethyl)biphenyl-3-sulfonamide], the IC50 came out at 15 nM on IMP-1, 9.5 nM at VIM-1 (setting [4]) and 4.46 nM on NDM-1. The “Escherichia coli MITC95” value in assay [1] was 1.563 µM. The “Serratia marcescens MITC95” value in assay [2] was 6.25 µM. Further, the “Klebsiella pneumoniae MITC95” value in assay [3] worked out at 12.5 µM.

For `NS(=O)(=O)c1c(C(F)(F)F)ccc(-c2ccc(C3CN(CC4CCNC4)C3)cc2)c1-c1nnn[nH]1` (stereo not drawn) [Example 818, 4′-[1-(pyrrolidin-3-ylmethyl)azetidin-3-yl]-2-(1H-tetrazol-5-yl)-4-(trifluoromethyl)biphenyl-3-sulfonamide], the IC50 was 8.6 nM at IMP-1, 17.2 nM on VIM-1 (setting [4]) and 4.38 nM at NDM-1. The “Escherichia coli MITC95” value in assay [1] is 1.563 µM. Also, the “Serratia marcescens MITC95” value in assay [2] was determined as 3.125 µM. For the same compound, in assay [3], the “Klebsiella pneumoniae MITC95” value came to 12.5 µM.

Take `NS(=O)(=O)c1c(C(F)(F)F)ccc([C@H]2CC[C@@H](N)CC2)c1-c1nnn[nH]1` [Example 819, 3-((1s,4s)-4-aminocyclohexyl)-2-(1H-tetrazol-5-yl)-6-(trifluoromethyl)benzenesulfonamide]: the IC50 came to 97.1 nM on IMP-1, 27.4 nM on VIM-1 (setting [4]) and 14.3 nM on NDM-1. Moreover, the “Escherichia coli MITC95” value in assay [1] worked out at 0.8464 µM. In assay [2], the “Serratia marcescens MITC95” value is 1.823 µM. In assay [3], the “Klebsiella pneumoniae MITC95” value was 3.385 µM.

On to `NS(=O)(=O)c1c(C(F)(F)F)ccc([C@H]2CC[C@H](N)CC2)c1-c1nnn[nH]1` [Example 820, 3-((1r,4r)-4-aminocyclohexyl)-2-(1H-tetrazol-5-yl)-6-(trifluoromethyl)benzenesulfonamide], for which the IC50 at IMP-1 was 39.4 nM; on VIM-1 (setting [4]) it was 0.659 nM; on NDM-1, 13.5 nM. Further, the “Escherichia coli MITC95” value in assay [1] was 0.3906 µM. Further, in assay [2], the “Serratia marcescens MITC95” value worked out at 0.7813 µM. Besides, in assay [3], the “Klebsiella pneumoniae MITC95” value turned out to be 0.7813 µM.

On to `NCC1CCN(c2ccc(C(F)(F)F)c(S(N)(=O)=O)c2-c2nnn[nH]2)CC1` [Example 821, 3-[4-(aminomethyl)-1-piperidyl]-2-(1H-tetrazol-5-yl)-6-(trifluoromethyl)benzenesulfonamide], for which the half-maximal inhibitory concentration (IC50) on IMP-1 was found to be 55.1 nM; on VIM-1 (setting [5]) it was 0.496 nM; at NDM-1, 18.1 nM. Besides, the “Escherichia coli MITC95” value in assay [1] amounted to 12.5 µM. For the same compound, the “Serratia marcescens MITC95” value in assay [2] is 6.25 µM. Moreover, the “Klebsiella pneumoniae MITC95” value in assay [3] is 12.5 µM.

Regarding `N=C(N)N1CCC2(CC1)CCN(c1ccc(C(F)(F)F)c(S(N)(=O)=O)c1-c1nnn[nH]1)CC2` [Example 822, 9-[3-sulfamoyl-2-(1H-tetrazol-5-yl)-4-(trifluoromethyl)phenyl]-3,9-diazaspiro[5.5]undecane-3-carboxamidine], the half-maximal inhibitory concentration (IC50) at IMP-1 was found to be 2.25 nM; against VIM-1 (setting [5]), 0.195 nM; at NDM-1, 1.44 nM. Moreover, the “Escherichia coli MITC95” value in assay [1] came to 0.6406 µM. Moreover, the “Serratia marcescens MITC95” value in assay [2] was found to be 0.0938 µM. In addition, in assay [3], the “Klebsiella pneumoniae MITC95” value was determined as 1.086 µM.

For `N=C(N)N[C@H]1CC[C@H](c2ccc(C(F)(F)F)c(S(N)(=O)=O)c2-c2nnn[nH]2)CC1` [Example 823, 1-[4-[3-sulfamoyl-2-(1H-tetrazol-5-yl)-4-(trifluoromethyl)phenyl]cyclohexyl] guanidine], the concentration for half-maximal inhibition (IC50) on IMP-1 is 25.4 nM; on VIM-1 (setting [4]) it was 0.666 nM; on NDM-1, 17.5 nM. The “Escherichia coli MITC95” value in assay [1] stood at 1.172 µM. In addition, the “Serratia marcescens MITC95” value in assay [2] amounted to 0.3906 µM. Besides, in assay [3], the “Klebsiella pneumoniae MITC95” value is 1.172 µM.
